The NIST ThermoML archive (doi:10.1016/j.fluid.2010.08.004)
± gives the expanded uncertainty stated by the source.

Test: mn = molality of the nth substance listed, in mol/kg
Settings: 101.3 kPa, Liquid; for speed of sound: Single path-length method; for mass density: Vibrating tube method

SMILES: CCCCCCCn1cc[n+](C)c1.[Br-] [1-heptyl-3-methylimidazolium bromide] + O
- speed of sound (288.15 K, m1 = 0.0096): 1468.2 ± 0.45 m/s
- speed of sound (288.15 K, m1 = 0.0113): 1468.5 ± 0.45 m/s
- speed of sound (288.15 K, m1 = 0.0151): 1469.1 ± 0.45 m/s
- speed of sound (288.15 K, m1 = 0.0226): 1470.4 ± 0.45 m/s
- speed of sound (288.15 K, m1 = 0.0306): 1471.8 ± 0.46 m/s
- speed of sound (288.15 K, m1 = 0.0384): 1472.9 ± 0.46 m/s
- speed of sound (288.15 K, m1 = 0.0571): 1476.1 ± 0.46 m/s
- speed of sound (288.15 K, m1 = 0.0778): 1479.3 ± 0.47 m/s
- speed of sound (288.15 K, m1 = 0.097): 1482.3 ± 0.47 m/s
- speed of sound (288.15 K, m1 = 0.1158): 1485.2 ± 0.47 m/s
- speed of sound (288.15 K, m1 = 0.1383): 1488.7 ± 0.48 m/s
- speed of sound (288.15 K, m1 = 0.1566): 1491.5 ± 0.48 m/s
- speed of sound (288.15 K, m1 = 0.174): 1494 ± 0.49 m/s
- mass density (288.15 K, m1 = 0.0096): 999.568 ± 0.041 kg/m3
- mass density (288.15 K, m1 = 0.0113): 999.656 ± 0.041 kg/m3
- mass density (288.15 K, m1 = 0.0151): 999.839 ± 0.041 kg/m3
- mass density (288.15 K, m1 = 0.0226): 1000.2 ± 0.041 kg/m3
- mass density (288.15 K, m1 = 0.0306): 1000.59 ± 0.041 kg/m3
- mass density (288.15 K, m1 = 0.0384): 1000.96 ± 0.042 kg/m3
- mass density (288.15 K, m1 = 0.0571): 1001.85 ± 0.043 kg/m3
- mass density (288.15 K, m1 = 0.0778): 1002.84 ± 0.044 kg/m3
- mass density (288.15 K, m1 = 0.097): 1003.74 ± 0.045 kg/m3
- mass density (288.15 K, m1 = 0.1158): 1004.62 ± 0.046 kg/m3
- mass density (288.15 K, m1 = 0.1383): 1005.67 ± 0.048 kg/m3
- mass density (288.15 K, m1 = 0.1566): 1006.51 ± 0.049 kg/m3
- mass density (288.15 K, m1 = 0.174): 1007.32 ± 0.05 kg/m3
- speed of sound (293.15 K, m1 = 0.0096): 1484.2 ± 0.46 m/s
- speed of sound (293.15 K, m1 = 0.0113): 1484.4 ± 0.45 m/s
- speed of sound (293.15 K, m1 = 0.0151): 1485 ± 0.45 m/s
- speed of sound (293.15 K, m1 = 0.0226): 1486.1 ± 0.45 m/s
- speed of sound (293.15 K, m1 = 0.0306): 1487.3 ± 0.45 m/s
- speed of sound (293.15 K, m1 = 0.0384): 1488.5 ± 0.46 m/s
- speed of sound (293.15 K, m1 = 0.0571): 1491.2 ± 0.46 m/s
- speed of sound (293.15 K, m1 = 0.0778): 1494.3 ± 0.47 m/s
- speed of sound (293.15 K, m1 = 0.097): 1497 ± 0.47 m/s
- speed of sound (293.15 K, m1 = 0.1158): 1499.7 ± 0.47 m/s
- speed of sound (293.15 K, m1 = 0.1383): 1502.8 ± 0.48 m/s
- speed of sound (293.15 K, m1 = 0.1566): 1505.3 ± 0.48 m/s
- speed of sound (293.15 K, m1 = 0.174): 1507.6 ± 0.49 m/s
- mass density (293.15 K, m1 = 0.0096): 998.662 ± 0.045 kg/m3
- mass density (293.15 K, m1 = 0.0113): 998.746 ± 0.041 kg/m3
- mass density (293.15 K, m1 = 0.0151): 998.926 ± 0.041 kg/m3
- mass density (293.15 K, m1 = 0.0226): 999.279 ± 0.041 kg/m3
- mass density (293.15 K, m1 = 0.0306): 999.656 ± 0.041 kg/m3
- mass density (293.15 K, m1 = 0.0384): 1000.03 ± 0.041 kg/m3
- mass density (293.15 K, m1 = 0.0571): 1000.9 ± 0.042 kg/m3
- mass density (293.15 K, m1 = 0.0778): 1001.86 ± 0.044 kg/m3
- mass density (293.15 K, m1 = 0.097): 1002.74 ± 0.045 kg/m3
- mass density (293.15 K, m1 = 0.1158): 1003.6 ± 0.046 kg/m3
- mass density (293.15 K, m1 = 0.1383): 1004.63 ± 0.047 kg/m3
- mass density (293.15 K, m1 = 0.1566): 1005.45 ± 0.048 kg/m3
- mass density (293.15 K, m1 = 0.174): 1006.24 ± 0.049 kg/m3
- speed of sound (298.15 K, m1 = 0.0096): 1498.3 ± 0.46 m/s
- speed of sound (298.15 K, m1 = 0.0113): 1498.5 ± 0.45 m/s
- speed of sound (298.15 K, m1 = 0.0151): 1499 ± 0.45 m/s
- speed of sound (298.15 K, m1 = 0.0226): 1500.1 ± 0.45 m/s
- speed of sound (298.15 K, m1 = 0.0306): 1501.2 ± 0.45 m/s
- speed of sound (298.15 K, m1 = 0.0384): 1502.2 ± 0.46 m/s
- speed of sound (298.15 K, m1 = 0.0571): 1504.7 ± 0.46 m/s
- speed of sound (298.15 K, m1 = 0.0778): 1507.5 ± 0.47 m/s
- speed of sound (298.15 K, m1 = 0.097): 1509.9 ± 0.47 m/s
- speed of sound (298.15 K, m1 = 0.1158): 1512.3 ± 0.47 m/s
- speed of sound (298.15 K, m1 = 0.1383): 1515.2 ± 0.48 m/s
- speed of sound (298.15 K, m1 = 0.1566): 1517.4 ± 0.48 m/s
- speed of sound (298.15 K, m1 = 0.174): 1519.5 ± 0.49 m/s
- mass density (298.15 K, m1 = 0.0096): 997.491 ± 0.044 kg/m3
- mass density (298.15 K, m1 = 0.0113): 997.574 ± 0.041 kg/m3
- mass density (298.15 K, m1 = 0.0151): 997.75 ± 0.041 kg/m3
- mass density (298.15 K, m1 = 0.0226): 998.097 ± 0.041 kg/m3
- mass density (298.15 K, m1 = 0.0306): 998.464 ± 0.042 kg/m3
- mass density (298.15 K, m1 = 0.0384): 998.827 ± 0.042 kg/m3
- mass density (298.15 K, m1 = 0.0571): 999.682 ± 0.042 kg/m3
- mass density (298.15 K, m1 = 0.0778): 1000.62 ± 0.043 kg/m3
- mass density (298.15 K, m1 = 0.097): 1001.49 ± 0.044 kg/m3
- mass density (298.15 K, m1 = 0.1158): 1002.33 ± 0.045 kg/m3
- mass density (298.15 K, m1 = 0.1383): 1003.34 ± 0.047 kg/m3
- mass density (298.15 K, m1 = 0.1566): 1004.14 ± 0.048 kg/m3
- mass density (298.15 K, m1 = 0.174): 1004.91 ± 0.049 kg/m3
- speed of sound (303.15 K, m1 = 0.0096): 1510.5 ± 0.46 m/s
- speed of sound (303.15 K, m1 = 0.0113): 1510.8 ± 0.45 m/s
- speed of sound (303.15 K, m1 = 0.0151): 1511.2 ± 0.45 m/s
- speed of sound (303.15 K, m1 = 0.0226): 1512.2 ± 0.45 m/s
- speed of sound (303.15 K, m1 = 0.0306): 1513.1 ± 0.45 m/s
- speed of sound (303.15 K, m1 = 0.0384): 1514.1 ± 0.46 m/s
- speed of sound (303.15 K, m1 = 0.0571): 1516.3 ± 0.46 m/s
- speed of sound (303.15 K, m1 = 0.0778): 1518.9 ± 0.47 m/s
- speed of sound (303.15 K, m1 = 0.097): 1521.1 ± 0.47 m/s
- speed of sound (303.15 K, m1 = 0.1158): 1523.3 ± 0.47 m/s
- speed of sound (303.15 K, m1 = 0.1383): 1525.8 ± 0.48 m/s
- speed of sound (303.15 K, m1 = 0.1566): 1527.9 ± 0.48 m/s
- speed of sound (303.15 K, m1 = 0.174): 1529.8 ± 0.49 m/s
- mass density (303.15 K, m1 = 0.0096): 996.083 ± 0.044 kg/m3
- mass density (303.15 K, m1 = 0.0113): 996.165 ± 0.042 kg/m3
- mass density (303.15 K, m1 = 0.0151): 996.337 ± 0.042 kg/m3
- mass density (303.15 K, m1 = 0.0226): 996.677 ± 0.042 kg/m3
- mass density (303.15 K, m1 = 0.0306): 997.04 ± 0.042 kg/m3
- mass density (303.15 K, m1 = 0.0384): 997.395 ± 0.042 kg/m3
- mass density (303.15 K, m1 = 0.0571): 998.23 ± 0.043 kg/m3
- mass density (303.15 K, m1 = 0.0778): 999.158 ± 0.043 kg/m3
- mass density (303.15 K, m1 = 0.097): 1000.01 ± 0.044 kg/m3
- mass density (303.15 K, m1 = 0.1158): 1000.83 ± 0.045 kg/m3
- mass density (303.15 K, m1 = 0.1383): 1001.81 ± 0.046 kg/m3
- mass density (303.15 K, m1 = 0.1566): 1002.6 ± 0.047 kg/m3
- mass density (303.15 K, m1 = 0.174): 1003.35 ± 0.048 kg/m3
- speed of sound (308.15 K, m1 = 0.0096): 1521.1 ± 0.45 m/s
- speed of sound (308.15 K, m1 = 0.0113): 1521.3 ± 0.45 m/s
- speed of sound (308.15 K, m1 = 0.0151): 1521.7 ± 0.45 m/s
- speed of sound (308.15 K, m1 = 0.0226): 1522.6 ± 0.45 m/s
- speed of sound (308.15 K, m1 = 0.0306): 1523.5 ± 0.45 m/s
- speed of sound (308.15 K, m1 = 0.0384): 1524.4 ± 0.46 m/s
- speed of sound (308.15 K, m1 = 0.0571): 1526.4 ± 0.46 m/s
- speed of sound (308.15 K, m1 = 0.0778): 1528.6 ± 0.46 m/s
- speed of sound (308.15 K, m1 = 0.097): 1530.7 ± 0.47 m/s
- speed of sound (308.15 K, m1 = 0.1158): 1532.6 ± 0.47 m/s
- speed of sound (308.15 K, m1 = 0.1383): 1534.9 ± 0.48 m/s
- speed of sound (308.15 K, m1 = 0.1566): 1536.7 ± 0.48 m/s
- speed of sound (308.15 K, m1 = 0.174): 1538.4 ± 0.49 m/s
- mass density (308.15 K, m1 = 0.0096): 994.457 ± 0.042 kg/m3
- mass density (308.15 K, m1 = 0.0113): 994.539 ± 0.042 kg/m3
- mass density (308.15 K, m1 = 0.0151): 994.708 ± 0.042 kg/m3
- mass density (308.15 K, m1 = 0.0226): 995.043 ± 0.042 kg/m3
- mass density (308.15 K, m1 = 0.0306): 995.398 ± 0.043 kg/m3
- mass density (308.15 K, m1 = 0.0384): 995.747 ± 0.043 kg/m3
- mass density (308.15 K, m1 = 0.0571): 996.569 ± 0.043 kg/m3
- mass density (308.15 K, m1 = 0.0778): 997.477 ± 0.044 kg/m3
- mass density (308.15 K, m1 = 0.097): 998.309 ± 0.044 kg/m3
- mass density (308.15 K, m1 = 0.1158): 999.119 ± 0.045 kg/m3
- mass density (308.15 K, m1 = 0.1383): 1000.08 ± 0.045 kg/m3
- mass density (308.15 K, m1 = 0.1566): 1000.86 ± 0.046 kg/m3
- mass density (308.15 K, m1 = 0.174): 1001.6 ± 0.048 kg/m3
